Earlier results in patent US7452858B2, “Treatment of gestational diabetes” (Amylin Pharmaceuticals, Inc., priority 1999, dated 2008).
Read-outs that look alike come from different tables or passages of the source. Where no end group is shown, it is not given here.

Columns and labels:
[1] = mice, peripheral injection
[2] = rats, intracerebroventricular injection
[3] = system: cloned GLP-1 receptor; settings: transfected cells

Substance	effect on food intake [1]	effect on food intake [2]	action at the cloned GLP-1 receptor (cAMP) [3]
GLP-1 [7-36]NH2 (HAEGTFTSDVSSYLEGQAAKEFIAWLVKGR-NH2)	does not inhibit food intake	inhibits food intake	
exendin[9-39]: C-terminally truncated exendin peptide, a carboxyamidated molecule, reported antagonist of GLP-1			antagonist
